# Reference: patent publication US20100233256A1, “SYNERGISTIC COMBINATIONS FOR TREATING HYPERTENSION” (LYCORED LTD., priority 2007, published 2010)
# Tested on: adhesion of neutrophils to EA.hy 926 endothelial cell line
# Assay: Adhesion of neutrophils to TNFα-induced EA.hy 926 endothelial cells
# Type: cell-based
# Details: for reduction of adhesion of neutrophils to cytokine-induced endothelial cell line: EAhy. 926; for inhibition of the adhesion: lower concentration, percent of the adhesion induced by TNFα
# Method: The applicants of the present invention have shown that lycopene, lutein and 7% Lye-O-Mato® can improve endothelial function by reducing, to similar extent (60±15%), the adhesion of neutrophils to cytokine-induced endothelial cell line (EAhy. 926). […] Lycopene 610 and oleoresin were diluted by 1:12 fold and lutein by 1:8 fold which result in ˜0.2 μM lycopene 610, ˜0.125 μM oleoresin and ˜0.6 μM lutein. The adhesion of neutrophils to EA.hy 926 cells were measured after the endothelial cells were induced by TNFα which result in increase of 60±10% in the adhesion from their combination, was calculated as percent of the adhesion induced by TNFα
SMILES,reduction of adhesion of neutrophils to cytokine-induced endothelial cell line (high concentration: lutein 4-5 μM) [%],"inhibition of the adhesion (~0.6 μM lutein, FIG. 1A) [%]",reduction of adhesion of neutrophils to cytokine-induced endothelial cell line (high concentration: lycopene 610 2-3 μM) [%],"inhibition of the adhesion (~0.2 μM lycopene 610, FIG. 1B) [%]"
CC1=C[C@H](O)CC(C)(C)[C@H]1/C=C/C(C)=C/C=C/C(C)=C/C=C/C=C(C)/C=C/C=C(C)/C=C/C1=C(C)C[C@@H](O)CC1(C)C [lutein],60±15,56±15,–,–
CC(C)=CCC/C(C)=C/C=C/C(C)=C/C=C/C(C)=C/C=C/C=C(C)/C=C/C=C(C)/C=C/C=C(\C)CCC=C(C)C [lycopene],–,–,60±15,40±22
